Article PMC11887051, “Discovery of ONO-2920632 (VU6011887): A Highly Selective and CNS Penetrant TREK-2 (TWIK-Related K+ Channel 2) Preferring Activator In Vivo Tool Compound” (ACS Chemical Neuroscience, 2025)

Columns and labels:
[1] = rat predicted hepatic clearance (hepatic microsomes); format: in vitro ADME
Protocol: Intrinsic clearance: Human or rat hepatic microsomes (0.5 mg/mL) and 1 µM test compound were incubated in 100 mM potassium phosphate pH 7.4 buffer with 3 mM MgCl2 at 37 °C with constant shaking. After a 5 min preincubation, the reaction was initiated by the addition of NADPH (1 mM). At selected time intervals (0, 3, 7, 15, 25, and 45 min), aliquots were taken and subsequently placed into a 96-well plate containing cold acetonitrile with internal standard (50 ng/mL carbamazepine). Plates were then centrifuged at 3000 rcf (4 °C) for 10 min, and the supernatant was transferred to a separate 96-well plate and diluted 1:1 with water for LC/MS/MS analysis. The in vitro half-life ( 1/2, min, Eq. 1), intrinsic clearance (CLint, mL/min/kg, Eq. 2), and subsequent predicted hepatic clearance (CLhep, mL/min/kg, Eq. 3) was determined employing the […]
where k represents the slope from linear regression analysis of the natural log percent remaining of a test compound as a function of incubation time […]
(2) CLint = in vitroT1/2 x mg microsomes x gram liver x kg body wt ascale-up factors: of 20 (human) or 45 (rat) […]
where Qh (hepatic blood flow, mL/min/kg) is 21 (human) or 70 (rat).
LC/MS/MS Bioanalysis of Samples from Plasma Protein Binding and Intrinsic Clearance […]
Samples were analyzed on a Thermo Electron TSQ Quantum Ultra triple quad mass spectrometer (San Jose, CA) via electrospray ionization (ESI) with two Themo Electron Accella pumps (San Jose, CA), and a Leap Technologies CTC PAL autosampler (Carrboro, NC). Analytes were separated by gradient elution on a dual column system with two Thermo Hypersil Gold (2.1 x 30 mm, 1.9 µm) columns (San Jose, CA) thermostated at 40 °C. HPLC mobile phase A was 0.1% formic acid in water and mobile phase B was 0.1% formic acid in acetonitrile. The gradient started […]
for 0.2 min; returned to 10% B in 0.1 min. The total run time was 1.3 min and the HPLC flow rate was 0.8 mL/min. While pump 1 ran the gradient method, pump 2 equilibrated the alternate column isocratically at 10% B. Compound optimization, data collection, and processing was performed using Thermo Electron's QuickQuan software (v2.3) and Xcalibur (v2.0.7 SP1).

[2] = mouse plasma protein binding; format: in vitro ADME; settings: pH 7.4, read-out: mouse plasma fu
Protocol: In vitro Plasma protein binding and Brain homogenate binding: Determination of fraction unbound (f u) in plasma was conducted in vitro via equilibrium dialysis using HTDialysis (HTD) membrane plates. The top half of the plate was filled with 100 uL of Dubelco’s Phosphate Buffered Saline, pH 7.4 (DPBS). Compounds were diluted into plasma from each species (5 µM final concentration), which was aliquoted in triplicate to the ‘bottom half’ of the prepared HTD plate wells. The HTD plate was sealed and incubated for 6 hours at 37 °C. Following incubation, each well (both top and bottom halves) were transferred (20 µL) to the corresponding wells of a 96-shallow-well (V-bottom) plate. The daughter plates were then matrix-matched (DPBS side wells received equal volume of plasma, and plasma side wells received equal volume of DPBS), and extraction solution (120 µL; acetonitrile containing 50 nM carbamazepine as IS) was added to all wells of both daughter plates to precipitate protein and extract test article. The plates were then sealed and centrifuged (3500 rcf) for 10 minutes at ambient temperature. Supernatant (60 µL) from each well of the daughter plates was then transferred to the corresponding wells of new daughter plates (96-shallow-well, V bottom) containing water (Milli-Q, 60 µL/well), and the plates were sealed in preparation for LC-MS/MS analysis (see LC-MS/MS analysis method below).
The unbound fraction (f u) was calculated following the equation below, and mean values for each species were calculated from 3 replicates. […]
Fraction unbound for both plasma and brain samples was determined using Equation 4.
Equation 4 Determination of fraction unbound in plasma. […]

With `CS(=O)(=O)Nc1ccc(C(=O)NCc2ccc(Cl)cc2Cl)cc1` [Compound 13] the “rat CLhep (predicted hepatic clearance)” value [1] was 17.4 mL/min/kg.
`O=C(NCc1ccc(Br)cc1Cl)c1ccc(-c2ncn[nH]2)cc1` [Compound 14a] gave a fraction unbound at 6 h, 5 µM [2] of 0.022.
In the case of `Cc1cc(OC(F)(F)F)ccc1CNC(=O)c1ccc2ncnn2c1` [Compound 19a], the fraction unbound at 6 h, 5 µM [2] is reported as 0.1 and the “rat CLhep (predicted hepatic clearance)” value [1] is reported as 5.7 mL/min/kg.
In the case of `O=C(NCc1ccc(OC(F)(F)F)cc1F)c1ccc2ncnn2c1` [Compound 19b], the fraction unbound at 6 h, 5 µM [2] is reported as 0.24 and the “rat CLhep (predicted hepatic clearance)” value [1] is reported as 2.9 mL/min/kg.
